Values after ≈ are worked out from the molar mass of the structure shown.
conditions: not given

With `CNC(=O)Oc1cccc(N=CN(C)C)c1` as the compound, how does the solubility read?
The solubility was 4.52 mM (≈ 1 mg/mL).

For `Cc1cc(NS(=O)(=O)c2ccc(N)cc2)nc(C)n1`, which solubility is on record?
The solubility was 5.79 mM (≈ 1.61 mg/mL).

With `Cc1cccc(Br)c1` as the compound, how does the solubility read?
The solubility was 0.3 mM (≈ 0.0513 mg/mL).

With `COc1coc(CSP(=O)(OC)OC)cc1=O` as the compound, how does the solubility read?
Its solubility is 5350 mM (≈ 1500 mg/mL).

With `CNC(=O)O/N=C1\[C@@H](Cl)[C@@H]2C[C@H](C#N)[C@H]1C2` as the compound, how does the solubility read?
Its solubility is 8.28 mM (≈ 2 mg/mL).

With `Cc1cc(C)c(N)cc1C` as the compound, how does the solubility read?
The solubility was 11.1 mM (≈ 1.5 mg/mL).

For `S=c1[nH]cnc2[nH]cnc12`, which solubility is on record?
The solubility was 450 mM (≈ 68.5 mg/mL).

With `CC1CCC(C)O1` (stereo unspecified) as the compound, how does the solubility read?
The solubility was 1180 mM (≈ 118 mg/mL).

With `Nc1ccc(O)c2c1C(=O)c1ccccc1C2=O` as the compound, how does the solubility read?
Its solubility is 0.15 mM (≈ 0.0359 mg/mL).

same assay, conditions: 20 °C

Which solubility does the source give for `CN=C=S` here?
Its solubility is 104 mM (≈ 7.6 mg/mL).

For `Clc1ccc(-c2ccc(Cl)c(Cl)c2Cl)cc1`, which solubility is on record?
The solubility was 0.000133 mM (≈ 3.89e-05 mg/mL).

For `N[C@@H](Cc1ccc(O)c(O)c1)C(=O)O`, which solubility is on record?
Its solubility is 25.4 mM (≈ 5 mg/mL).

For `O=C(O)C1(O)c2ccccc2-c2ccc(Cl)cc21` (stereo unspecified), which solubility is on record?
The solubility was 0.076 mM (≈ 0.0198 mg/mL).

For `OCCCBr`, which solubility is on record?
Its solubility is 1020 mM (≈ 142 mg/mL).

Which solubility does the source give for `CCOP(=S)(OCC)OP(=S)(OCC)OCC` here?
Its solubility is 0.0931 mM (≈ 0.03 mg/mL).

Which solubility does the source give for `O=[N+]([O-])c1c(O)ccc2ccccc12` here?
The solubility was 1.06 mM (≈ 0.2 mg/mL).

Which solubility does the source give for `Clc1ccc(Cl)c(-c2cc(Cl)c(Cl)c(Cl)c2Cl)c1` here?
Its solubility is 2.09e-05 mM (≈ 7.55e-06 mg/mL).

For `C=CC(=O)Oc1c(Br)cc(Cl)c2cccnc12`, which solubility is on record?
The solubility was 0.0192 mM (≈ 0.006 mg/mL).

With `Oc1ccc(/N=N/c2ccccc2)cc1` as the compound, how does the solubility read?
The solubility was 0.454 mM (≈ 0.09 mg/mL).

With `Clc1ccc(-c2cccc(Cl)c2Cl)c(Cl)c1` as the compound, how does the solubility read?
Its solubility is 0.000208 mM (≈ 6.08e-05 mg/mL).

With `Clc1cc(Cl)c(-c2c(Cl)cc(Cl)c(Cl)c2Cl)cc1Cl` as the compound, how does the solubility read?
Its solubility is 1.24e-05 mM (≈ 4.9e-06 mg/mL).

Which solubility does the source give for `Oc1cccc2ncccc12` here?
The solubility was 2.87 mM (≈ 0.417 mg/mL).

For `O=C1NC(=O)C2C3C(C(O)(c4ccccc4)c4ccccn4)=CC(C3=C(c3ccccc3)c3ccccn3)C12` (stereo unspecified), which solubility is on record?
Its solubility is 0.117 mM (≈ 0.06 mg/mL).

With `CCNc1nc(NC(C)CC)nc(OC)n1` (stereo unspecified) as the compound, how does the solubility read?
The solubility was 2.71 mM (≈ 0.61 mg/mL).

With `Nc1ccc2cc3ccc(N)cc3nc2c1` as the compound, how does the solubility read?
The solubility was 2390 mM (≈ 500 mg/mL).

For `CC(C)I`, which solubility is on record?
The solubility was 8.24 mM (≈ 1.4 mg/mL).

Which solubility does the source give for `Nc1cnn(-c2ccccc2)c(=O)c1Cl` here?
The solubility was 1.8 mM (≈ 0.4 mg/mL).

For `C[C@H](O)C(=O)Nc1c(I)c(C(=O)NC(CO)CO)c(I)c(C(=O)NC(CO)CO)c1I`, which solubility is on record?
The solubility was 180 mM (≈ 140 mg/mL).

With `Clc1ccc(Cl)c(-c2cccc(Cl)c2Cl)c1` as the compound, how does the solubility read?
The solubility was 0.000342 mM (≈ 0.0001 mg/mL).

Which solubility does the source give for `O=[N+]([O-])c1cc(Cl)c(Cl)cc1Cl` here?
Its solubility is 0.13 mM (≈ 0.0294 mg/mL).

For `CCSCc1ccccc1OC(=O)NC`, which solubility is on record?
Its solubility is 8.08 mM (≈ 1.82 mg/mL).

For `O=C(O)c1ccccc1C(c1ccc(O)cc1)c1ccc(O)cc1`, which solubility is on record?
Its solubility is 0.546 mM (≈ 0.175 mg/mL).

For `Cc1occc1C(=O)Nc1ccccc1`, which solubility is on record?
The solubility was 0.497 mM (≈ 0.1 mg/mL).

For `CCCCCCCCCCCCC(=O)O`, which solubility is on record?
Its solubility is 0.154 mM (≈ 0.033 mg/mL).

Which solubility does the source give for `O=[N+]([O-])c1cc(Cl)c(Cl)c(Cl)c1Cl` here?
The solubility was 0.028 mM (≈ 0.0073 mg/mL).

For `c1ncc2nc[nH]c2n1`, which solubility is on record?
Its solubility is 4160 mM (≈ 500 mg/mL).

With `Clc1ccc(Cl)c(-c2cc(Cl)c(Cl)c(Cl)c2)c1` as the compound, how does the solubility read?
Its solubility is 4.84e-05 mM (≈ 1.58e-05 mg/mL).

Which solubility does the source give for `O=[N+]([O-])c1ccc(Cl)c(Cl)c1Cl` here?
Its solubility is 0.115 mM (≈ 0.026 mg/mL).

For `Clc1cc(-c2cccc(Cl)c2Cl)cc(Cl)c1Cl`, which solubility is on record?
The solubility was 3.93e-05 mM (≈ 1.28e-05 mg/mL).

Which solubility does the source give for `Clc1cc(Cl)c(-c2c(Cl)c(Cl)cc(Cl)c2Cl)cc1Cl` here?
Its solubility is 1.14e-05 mM (≈ 4.51e-06 mg/mL).

With `Clc1ccc(-c2cc(Cl)c(Cl)cc2Cl)cc1Cl` as the compound, how does the solubility read?
The solubility was 4.1e-05 mM (≈ 1.34e-05 mg/mL).

With `CC1CNCCN1` (stereo unspecified) as the compound, how does the solubility read?
Its solubility is 4340 mM (≈ 435 mg/mL).

Which solubility does the source give for `CC(C)OC(=O)C(C)N(C(=O)c1ccccc1)c1ccc(F)c(Cl)c1` (stereo unspecified) here?
Its solubility is 0.0373 mM (≈ 0.0136 mg/mL).

With `CCC(C)OC(C)=O` (stereo unspecified) as the compound, how does the solubility read?
Its solubility is 53.4 mM (≈ 6.2 mg/mL).

For `c1cnc2ncncc2n1`, which solubility is on record?
The solubility was 1080 mM (≈ 143 mg/mL).

Which solubility does the source give for `Cc1cccc(N)c1` here?
The solubility was 140 mM (≈ 15 mg/mL).

With `CC(=O)CCC1C(=O)N(c2ccccc2)N(c2ccccc2)C1=O` as the compound, how does the solubility read?
Its solubility is 0.54 mM (≈ 0.174 mg/mL).

For `CSc1nc(N=[N+]=[N-])nc(NC(C)C)n1`, which solubility is on record?
Its solubility is 0.244 mM (≈ 0.055 mg/mL).

With `C=CC1CN2CCC1CC2C(=O)c1ccnc2ccc(OC)cc12` (stereo unspecified) as the compound, how does the solubility read?
The solubility was 0.0093 mM (≈ 0.003 mg/mL).

same assay, conditions: 21 °C

With `CCOc1ccc(NC(N)=O)cc1` as the compound, how does the solubility read?
Its solubility is 6.71 mM (≈ 1.21 mg/mL).

With `Brc1cccc2ccccc12` as the compound, how does the solubility read?
The solubility was 0.045 mM (≈ 0.00932 mg/mL).

same assay, conditions: 22 °C

For `C1CCN2C[C@@H]3C[C@@H](CN4CCCC[C@@H]34)[C@H]2C1`, which solubility is on record?
The solubility was 13 mM (≈ 3.04 mg/mL).

With `CCCOC=O` as the compound, how does the solubility read?
Its solubility is 250 mM (≈ 22 mg/mL).

For `Cc1ccccc1Oc1cccnn1`, which solubility is on record?
The solubility was 10.7 mM (≈ 2 mg/mL).

For `Cc1cc(S(=O)(=O)c2ccccc2)ccc1NS(=O)(=O)C(F)(F)F`, which solubility is on record?
Its solubility is 0.158 mM (≈ 0.06 mg/mL).

Which solubility does the source give for `CN(C)C(=O)N(C(=O)c1ccccc1)c1ccc(Cl)c(Cl)c1` here?
The solubility was 0.0474 mM (≈ 0.016 mg/mL).

same assay, conditions: 23 °C

Which solubility does the source give for `CCCC(C)(C)C(=O)Nc1ccc(Cl)cc1` here?
The solubility was 0.0951 mM (≈ 0.0228 mg/mL).

With `O=C1C(Cl)=C(NC(=O)C(Cl)Cl)C(=O)c2ccccc21` as the compound, how does the solubility read?
The solubility was 0.00942 mM (≈ 0.003 mg/mL).

same assay, conditions: 24 °C

For `COP(=S)(Oc1cc(Cl)c(Br)cc1Cl)c1ccccc1` (stereo unspecified), which solubility is on record?
The solubility was 7.28e-05 mM (≈ 3e-05 mg/mL).

For `CC1CCCCC1C` (stereo unspecified), which solubility is on record?
Its solubility is 0.0748 mM (≈ 0.0084 mg/mL).

With `CN(C)CCC=C1c2ccccc2CCc2ccccc21` as the compound, how does the solubility read?
The solubility was 0.035 mM (≈ 0.00971 mg/mL).

With `Cc1c2ccccc2cc2c1ccc1ccccc12` as the compound, how does the solubility read?
Its solubility is 4.54e-05 mM (≈ 1.1e-05 mg/mL).

Which solubility does the source give for `CN(C)CCCN1c2ccccc2Sc2ccccc21` here?
The solubility was 0.0499 mM (≈ 0.0142 mg/mL).

same assay, conditions: 25 °C

For `CN(C)CC/C=C1\c2ccccc2COc2ccccc21`, which solubility is on record?
Its solubility is 0.113 mM (≈ 0.0316 mg/mL).

Which solubility does the source give for `CCC1(C2=CCCCCC2)C(=O)NC(=O)NC1=O` here?
Its solubility is 0.999 mM (≈ 0.25 mg/mL).

Which solubility does the source give for `CC(=O)O[C@]1(C(C)=O)CC[C@H]2[C@@H]3C=C(Cl)C4=CC(=O)C=C[C@]4(C)[C@H]3CC[C@@]21C` here?
The solubility was 0.0113 mM (≈ 0.00457 mg/mL).

For `c1ccc(-c2ccccc2-c2ccccc2)cc1`, which solubility is on record?
Its solubility is 0.00538 mM (≈ 0.00124 mg/mL).

For `CC(=O)[C@@]1(O)CC[C@H]2[C@@H]3C[C@H](C)C4=CC(=O)C=C[C@]4(C)[C@@]3(F)[C@@H](O)C[C@@]21C`, which solubility is on record?
The solubility was 0.0797 mM (≈ 0.03 mg/mL).

Which solubility does the source give for `CCCCCCCC` here?
The solubility was 0.00578 mM (≈ 0.00066 mg/mL).

For `FC1(F)C(F)(F)C(F)(F)C1(F)F`, which solubility is on record?
The solubility was 0.165 mM (≈ 0.033 mg/mL).

Which solubility does the source give for `Cc1c(C(=O)O)c(O)cc2c1C(=O)c1c(O)c([C@@H]3O[C@H](CO)[C@@H](O)[C@H](O)[C@H]3O)c(O)c(O)c1C2=O` here?
Its solubility is 2.64 mM (≈ 1.3 mg/mL).

For `O=C(O)C(=O)Nc1ccccc1`, which solubility is on record?
The solubility was 49.9 mM (≈ 8.24 mg/mL).

Which solubility does the source give for `CC(=O)C(C)C` here?
The solubility was 706 mM (≈ 60.8 mg/mL).

For `CC/C(=C(/CC)c1ccc(O)cc1)c1ccc(O)cc1`, which solubility is on record?
The solubility was 0.0447 mM (≈ 0.012 mg/mL).

Which solubility does the source give for `C=Cc1ccccc1` here?
The solubility was 2.98 mM (≈ 0.31 mg/mL).

With `O=C(Oc1ccccc1)c1ccccc1O` as the compound, how does the solubility read?
The solubility was 0.7 mM (≈ 0.15 mg/mL).

Reference: the OPERA property sets (Mansouri et al. 2018)
